pEC50, pIC50, pKi: −log10 of the molar value. Where only a bound is given, the exact number is not on record here.

The first assay deals with T1, Mitogen-activated protein kinase 14 (Homo sapiens, UniProt Q16539). The experiment in a line: Inhibition of p38alpha assessed as inhibition of [gamma-33P]ATP incorporation into substrate after 4 hrs by radiometric assay.
T1 sequence (Q16539 whole entry): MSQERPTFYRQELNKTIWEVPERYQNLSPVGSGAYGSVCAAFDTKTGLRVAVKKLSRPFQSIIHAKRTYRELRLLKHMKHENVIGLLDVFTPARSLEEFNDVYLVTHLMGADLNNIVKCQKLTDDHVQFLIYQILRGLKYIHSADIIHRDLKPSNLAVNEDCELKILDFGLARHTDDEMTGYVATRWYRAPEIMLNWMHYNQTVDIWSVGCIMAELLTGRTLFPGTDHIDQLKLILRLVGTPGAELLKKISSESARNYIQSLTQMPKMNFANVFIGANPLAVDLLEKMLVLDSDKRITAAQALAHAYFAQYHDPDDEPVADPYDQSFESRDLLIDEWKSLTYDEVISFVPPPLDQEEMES
`CONC(=O)c1ccc(C)c(Nc2nc(NCc3cccc(C)c3)nc(NC(C)C(C)(C)C)n2)c1` (stereo not drawn): the pIC50 (as a rule, −log10 of the IC50, conventionally taken in molar units) is 7.82.
Same read-out and setting: then `CONC(=O)c1ccc(C)c(Nc2nc(NCC3CCCC(CN)C3)nc(NC3CCCCC3)n2)c1` (stereo not drawn), with at least 8.70; and `CONC(=O)c1ccc(C)c(Nc2nc(NCC3CCCC(CN)C3)nc(NC(C)C(C)(C)C)n2)c1` (stereo not drawn), with at least 8.70.

Another assay deals with T1, Mitogen-activated protein kinase 14. The experiment in a line: Displacement of […] form p38alpha after 30 mins by luminescence assay.
`CNC(=O)[C@H](Cc1ccc2c(c1)COC(C)(C)O2)Nc1nc(-n2cnc3ccc(C(=O)N4CCCc5ccccc54)cc32)nc(=O)[nH]1`: the pEC50 – broadly, −log10 of the EC50, conventionally taken in molar units – was at least 8.15.
The same measure, in the same setting: then `CCOc1nc(N[C@@H](Cc2ccc3c(c2)COC(C)(C)O3)C(=O)NC)nc(-n2cnc3ccc(C(=O)N4CCCc5ccccc54)cc32)n1`, with at least 8.10.
Same read-out and setting: under `CNC(=O)[C@H](Cc1ccc2c(c1)COC(C)(C)O2)Nc1nc(O)nc(-n2cnc3cc(C(=O)N4CCCc5ccccc54)ccc32)n1` stands 5.28; under `CCOc1nc(N[C@@H](Cc2ccc3c(c2)COC(C)(C)O3)C(=O)NC)nc(-n2cnc3cc(C(=O)N4CCCc5ccccc54)ccc32)n1`, 5.57.

The next assay has as its target T2, Aurora kinase A (Homo sapiens, UniProt O14965).
T2 sequence (O14965 whole entry): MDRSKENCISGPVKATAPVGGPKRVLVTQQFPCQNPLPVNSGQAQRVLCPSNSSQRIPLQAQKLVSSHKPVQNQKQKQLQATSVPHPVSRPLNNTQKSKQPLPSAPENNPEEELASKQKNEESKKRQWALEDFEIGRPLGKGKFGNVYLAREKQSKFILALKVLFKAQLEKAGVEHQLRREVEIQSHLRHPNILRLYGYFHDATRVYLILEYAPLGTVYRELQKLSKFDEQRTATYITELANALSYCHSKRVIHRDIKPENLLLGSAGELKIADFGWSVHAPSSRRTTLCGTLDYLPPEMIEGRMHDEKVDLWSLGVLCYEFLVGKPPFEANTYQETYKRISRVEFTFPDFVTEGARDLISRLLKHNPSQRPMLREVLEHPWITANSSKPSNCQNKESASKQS
The experiment in a line: Inhibition of Aurora A ATP-binding site assessed as inhibition of [gamma-33P]ATP incorporation into substrate by scintillation counting.
For `COc1ccccc1CCNc1nc(Nc2ccc3ncccc3c2)nc(NC(Cc2c[nH]c3ncccc23)C(N)=O)n1` (stereo not drawn), the pIC50 is 8.43.
Turning to `CNc1nc(NCCc2ccccc2OC)nc(Nc2ccc3ncccc3c2)n1`, the pIC50 is 8.29.
With `CCCCN(C)c1nc(NCCc2ccccc2OC)nc(NCCc2c[nH]c3ncccc23)n1`, the pIC50 was 8.92.
The same measure, in the same setting: then `CCCCN(C)c1nc(NCCc2ccccc2OC)nc(NC(Cc2c[nH]c3ncccc23)C(N)=O)n1` (stereo not drawn), with 8.42; and `COc1ccccc1CCNc1nc(NC(Cc2c[nH]c3ncccc23)C(N)=O)nc(N(C)[C@@H](C)c2ccccc2)n1` (stereo partly drawn), with 8.20.

Another assay deals with T2, Aurora kinase A. The assay is described as follows: Inhibition of Aurora A ATP-binding site.
In the case of `Cc1cc(Nc2cc(N3CCN(CC(=O)O)CC3)nc(Sc3ccc(NC(=O)C4CC4)cc3)n2)n[nH]1`, the pKi (usually −log10 of the Ki, conventionally taken in molar units) was 7.70.
